Experimental data: paper PMC10547238, “Discovery of Potent Tetrazole Free Fatty Acid Receptor 2 Antagonists” (Journal of Medicinal Chemistry, 2023)
Several values for one entry are separate records, joined by “and”; a condition that tells them apart may be missing. Equal entries are not always repeated. Entries after “also recorded” stand apart in the source; their conditions may differ. Where two headings read alike, the source gives them in different places.

Tests used:
human FFA2-eYFP = molecular target: T1, human FFA2-eYFP (Homo sapiens, UniProt O15552); experiment: [35S]GTPγS incorporation assay, membranes of Flp-In T-Rex 293 cells; format: biochemical; settings: for GTPγS pIC50: hFFA2, propionate at EC80, mean ± SEM, three or more experiments; for LLEGTPγS: pIC50, GTPγS – ClogP
T1 construct: expressed in transfected cells; host or cells: membranes of Flp-In T-Rex 293 cells induced to express the construct
T1 sequence (O15552 1-330): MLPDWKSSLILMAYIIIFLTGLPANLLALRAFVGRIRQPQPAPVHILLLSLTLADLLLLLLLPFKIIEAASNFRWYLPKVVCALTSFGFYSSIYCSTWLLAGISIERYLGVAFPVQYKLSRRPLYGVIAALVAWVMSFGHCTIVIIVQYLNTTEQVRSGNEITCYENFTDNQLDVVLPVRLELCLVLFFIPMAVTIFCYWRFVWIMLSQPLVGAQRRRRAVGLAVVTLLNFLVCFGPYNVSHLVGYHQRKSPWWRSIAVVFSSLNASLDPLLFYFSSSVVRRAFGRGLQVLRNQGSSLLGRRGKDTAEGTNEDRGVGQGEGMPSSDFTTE
Experimental: (§1) The activity of the compounds on FFA2 was evaluated in two different functional antagonist assays, both using propionate at EC80 as the agonist. The GTPγS assay reflects receptor activation by directly assessing G protein recruitment, whereas the cAMP assay, performed in whole cells, reflects a physiologically relevant downstream second messenger.
Functional activity of the compounds were tested in a [^35S]GTPγS incorporation assay using membranes of Flp-In T-Rex 293 cells induced to express human FFA2-eYFP. […] The reaction was initiated by addition of [^35S]GTPγS (100 nCi per reaction) containing 1 μM GDP and incubated at 30 °C for 60 min. The reaction was terminated by rapid vacuum filtration through GF/C glass fiber filter-bottom 96-well microplates (PerkinElmer Life Sciences, Beaconsfield, UK) using a UniFilter FilterMate Harvester (PerkinElmer). Unbound radioligands were removed from filters by three washes with ice-cold PBS. MicroScint-20 (PerkinElmer) was added to dried filters, and [^35S]GTPγS binding was quantified by liquid scintillation spectroscopy.

hFFA2 = molecular target: T2, hFFA2 (Homo sapiens, UniProt O15552); experiment: cAMP assay, antagonist mode, Flp-In T-Rex 293 cells expressing hFFA2-eYFP; format: cell-based; settings: for cAMP pIC50: hFFA2, antagonist mode, propionate at EC80, mean ± SEM, three or more experiments; for LLEcAMP: pIC50, cAMP – ClogP; for LLEcAMP-logD: pIC50, cAMP – logD7.4
T2 construct: expressed in transfected cells; host or cells: Flp-In T-Rex 293 cells, doxycycline-induced
T2 sequence (O15552 1-330): T1 sequence (O15552 1-330)
Experimental: as §1
The hFFA2-eYFP and hFFA3-eYFP Flp-In T-Rex 293 cell lines were maintained in Dulbecco’s modified Eagle mMedium (DMEM, ThermoFisher #11965092) supplemented with 10% (v/v) fetal bovine serum, 100 U/mL penicillin, 100 μg/mL streptomycin, 5 μg/mL blasticidin S, and 200 μg/mL hygromycin B and incubated at 37 °C and 5% CO2 in a humidified incubator. Cells were passaged at 70–80% confluency.
To determine the compound’s ability to activate or inhibit the Gi-coupled FFA2 or FFA3, intracellular cAMP concentrations were determined using Flp-In T-Rex293 cells induced to express hFFA2-eYFP or hFFA3-eYFP. Experiments were carried out using a homogeneous time-resolved FRET-based detection kit (CisBio, PerkinElmer #62AM9PEC) according to the manufacturer’s protocol. The day before the assay, 10,000 cells/well were plated in DMEM supplemented with penicillin/streptomycin (100 units/mL and […], respectively), 5 μg/mL blasticidin S, and 200 μg/mL hygromycin B in 96-well cell culture microplates (Greiner Bio-One) and induced to express hFFA2-eYFP or hFFA3-YFP with 100 ng/mL doxycycline.
In antagonist mode, the cells were pre-incubated for 20 min with antagonist test compounds in HBSS together with 50 μM IBMX at rt. Then, the cells were further incubated for 25 min at rt in HBSS with the agonist compound, sodium propionate at EC80 (51.4 μM for FFA2, 13.2 μM for FFA3), and 3 μM forskolin. Reactions were stopped, and the output was measured with an Envision plate reader using a time-resolved fluorescence protocol, measuring the light emission at 620 and 665 nm. All analyses were performed in triplicate and analyzed using GraphPad Prism (version 9).

human neutrophils = experiment: Human neutrophil respiratory burst (luminol-amplified chemiluminescence); format: cell-based; settings: for IC50: Neutrophil, read-out: pIC50 on C3-induced respiratory burst (converted)
Experimental: Human peripheral blood neutrophils were isolated from healthy volunteer buffy coats. Initially, the majority of red blood cells were sedimented using 2% w/v dextran sulfate in a 0.9% NaCl solution for 15 min. Next, the upper phase was centrifuged for 10 min at 200g and the supernatant was discarded. The pellet was resuspended in 0.9% NaCl solution, and neutrophils were separated from here using Lymphoprep (STEMCELL Technologies #07851) and density-gradient centrifugation (400g for 30 min). Then, the remaining red blood cells were subjected to hypotonic lysis by addition of 10 mL of sterile water followed by addition of 10 mL of 1.8% NaCl solution. Cell count and viability were determined using trypan blue and a Countess cell counter. Isolated neutrophils were characterized by May–Grunwald–Giemsa staining and immediately used for migration assays or assessment of respiratory burst.
Human neutrophil respiratory burst was assessed via luminol-amplified chemiluminescence. Freshly isolated human neutrophils were seeded in a concentration of 100,000 cells/well in a flat bottom, white 96-well plate (PerkinElmer cat #6005680). Cells were pre-incubated for 30 min with test compounds or vehicles (DMSO) in HBSS in a humidified atmosphere at 37 °C and 5% CO2. Next, luminol (Merck cat #521-31-3) was added to a final concentration of 10 μM. Lastly, the vehicle or the FFA2 agonist, sodium propionate, was added to a final concentration of 1 mM. Immediately thereafter, chemiluminescence was evaluated with an LUMIstar Omega microplate reader (PerkinElmer) where light emission was recorded for 1 s/well every 60 s for 1 h at 37 °C. Experiments were performed in triplicate and analyzed using GraphPad Prism (version 9). Fold response was calculated as the relative luminescence of samples compared to the vehicle control.

| Compound | GTPγS pIC50 (human FFA2-eYFP) | LLEGTPγS (human FFA2-eYFP) | cAMP pIC50 (hFFA2) | LLEcAMP (hFFA2) | LLEcAMP-logD (hFFA2) | IC50 (human neutrophils; propionate (C3) 1 mM) | IC50 (human FFA2-eYFP; inhibition of propionate at FFA2) | IC50 (hFFA2; inhibition of propionate at FFA2, read-out: IC50 in cAMP assay) | effect on respiratory burst induced by fMLP (human neutrophils; fMLP-induced) | inhibition of propionate-induced respiratory burst (human neutrophils; propionate (C3) 1 mM) | IC50 (hFFA2; supplementary CSV, read-out: hFFA2 cAMP (pIC50) (converted)) | increase in potency (hFFA2; vs 16s, assay not specified) |
| --- | --- | --- | --- | --- | --- | --- | --- | --- | --- | --- | --- | --- |
| O=C(O)C[C@H](Cc1ccc(C(F)(F)F)cc1)NC(=O)Cc1cccc(Cl)c1 [Compound 3, reference compound] | 6.68 ± 0.05 | 2.47 | 6.96 ± 0.07 | 2.75 | 5.57 | 46.8 nM |  |  |  |  |  |  |
| COc1cccc(CC(=O)N[C@@H](Cc2ccc(C(F)(F)F)cc2)Cc2nnn[nH]2)c1 [Compound 16l, (S)-N-(1-(1H-Tetrazol-5-yl)-3-(4-(trifluoromethyl)phenyl)propan-2-yl)-2-(3-methoxyphenyl)acetamide] | 8.46 ± 0.05 | 5.98 | 8.35 ± 0.15 | 5.87 | 7.5 and 7.51 | 5.75 nM | 3 to 4 nM and 4 nM | 3 to 4 nM and 4 nM | did not exhibit any effect | completely inhibit; also recorded: full inhibition; also recorded: complete inhibition |  |  |
| O=C(Cc1cncc(Br)c1)N[C@@H](Cc1ccc(C(F)(F)F)cc1)Cc1nnn[nH]1 [Compound 16w, (S)-3-(2-((1-(1H-Tetrazol-5-yl)-3-(4-(trifluoromethyl)phenyl)propan-2-yl)amino)-2-oxoethyl)-5-bromopyridin-1-ium 2,2,2-trifluoroacetate] | 8.21 ± 0.09 | 6.28 | 7.83 ± 0.14 | 5.90 | 7.1 and 7.12 |  |  |  |  |  | 10.2 nM | 9 fold |
